Results reported in publication PMC7487564 (Cell Communication and Signaling : CCS, 2020).

Columns and labels:
PVR = target: T1, PVR (Homo sapiens, UniProt P15151); experiment: Biolayer interferometry-based (BLI) binding assay; conditions: for Kd: read-out: KD to PVR protein (BLI)
T1 construct: purchased ACRO Biosystem CD5-H82E3
T1 sequence (P15151 21-417): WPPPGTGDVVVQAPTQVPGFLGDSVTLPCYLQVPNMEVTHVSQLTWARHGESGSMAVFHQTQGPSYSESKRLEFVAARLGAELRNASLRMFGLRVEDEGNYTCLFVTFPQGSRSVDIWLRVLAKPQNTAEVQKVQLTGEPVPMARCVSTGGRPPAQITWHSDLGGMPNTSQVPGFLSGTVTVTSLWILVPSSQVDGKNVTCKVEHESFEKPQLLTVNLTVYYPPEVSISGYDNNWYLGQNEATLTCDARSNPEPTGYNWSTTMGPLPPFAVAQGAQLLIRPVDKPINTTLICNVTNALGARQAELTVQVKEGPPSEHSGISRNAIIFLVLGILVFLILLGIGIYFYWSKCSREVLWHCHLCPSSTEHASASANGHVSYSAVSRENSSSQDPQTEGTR
Description: BLI experiments were performed in PBS supplemented with 0.1% (w/v) BSA, 0.002% (v/v) Tween 20 and 1% DMSO, with an Octet RED96 instrument (FortéBio), operating at 25 °C. The biotinylated PVR carrying a C-terminal AVITAG (CD5-H82E3, ACRO Biosystem) was loaded to saturation onto Super Streptavidin (SSA) biosensors (Pall/FortéBio), and blocked with 200 μL biotin (5 μg/mL) for 60 s. Before the assay, the PVR-labeled SSA sensors were pre-soaked in binding buffer for 30 min. The twenty-two small molecule compounds were preliminary screened for binding to PVR at a single concentration of 100 μM. […] The dissociation was monitored by washing the ligand biosensors from the analyte solution to binding buffer for 60 s. Double reference-subtracted sensorgrams were analyzed using Data Analysis 9.0 (Pall/Forte Bio), and binding responses at the end of the association phase were reported.

human TIGIT/PVR = target: T2, human TIGIT/PVR (Homo sapiens, UniProt P15151); experiment: Cell based blocking assay, CHOK1-hTIGIT cells and human PVR-Fc; conditions: CHOK1-hTIGIT cells, highest concentration
T2 construct: purchased ACRO Biosystem CD5-H82F6; host or cells: PVR-Fc was purchased; TIGIT was expressed on CHO-K1 cells by lentiviral infection (CHOK1-hTIGIT)
T2 sequence (P15151 28-343 limits assumed): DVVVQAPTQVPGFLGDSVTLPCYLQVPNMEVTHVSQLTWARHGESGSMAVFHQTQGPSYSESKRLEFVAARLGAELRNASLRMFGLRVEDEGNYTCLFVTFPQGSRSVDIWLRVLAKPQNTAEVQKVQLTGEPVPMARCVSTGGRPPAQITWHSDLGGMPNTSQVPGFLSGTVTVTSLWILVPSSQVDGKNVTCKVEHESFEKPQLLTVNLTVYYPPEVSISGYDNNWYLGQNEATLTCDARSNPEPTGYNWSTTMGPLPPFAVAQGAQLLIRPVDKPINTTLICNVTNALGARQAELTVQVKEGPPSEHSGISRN
Description: Cell based blocking assay was performed according to the previous report [30]. […] Then the mixture of PVR protein and compounds were incubated with CHOK1-TIGIT cells for another 30 min, followed by incubation with detection antibody anti-human IgG-PE (eBioscience) for 30 min. Cells were then washed with FACS buffer to remove the unbound fluorescent antibodies, acquired on a FACS Caliber™ (BD Biosciences) and analyzed by FlowJo. […] Cells incubated with corresponding Fc tagged protein and anti-human IgG-PE served as positive control, while cells only incubated with anti-human Fc-PE served as negative control. The mean fluorescent intensity (MFI) was recorded for calculating the blocking efficiency as the formula: Blocking%=MFIof positive control−MFIof tested compounds/MFIof positive control×100%.

MC38 cells = experiment: Cell viability assay (MTT); type: cell-based, murine; conditions: 12.5 to 100 μM, 3 days
Description: The cytotoxic effects of indicated compound on MC38 cells were determined by MTT assay. MC38 cells were seeded into 96-well plates at a density of 3000 cells/well and allowed to grow for adhesion. Cells were treated with medium with 1% DMSO as negative control or with a series dilution of indicated compound at a concentration range of 12.5 to 100 μM. Cell viability was ascertained using MTT reagent (Sigma) dissolved in 5 mg/mL PBS and incubated at 37 °C for 4 h in the following 3 days. Formazan crystals formed by viable cells were dissolved in 150 μL DMSO in each well. MTT reduction was quantified by measuring the absorbance at 490 nm.

MC38 tumor = experiment: Anti-tumor experiment and ex vivo assays, MC38 tumor-bearing mice; type: in vivo, C57BL/6 mice
Description: All mice experimental procedures were approved by the Ethics Committee of Zhengzhou University. Six-week-old female C57BL/6 mice (Vital River Laboratories, China) were maintained in a specific pathogen-free facility. Food and water were supplied ad libitum. Mice were acclimatized for about 1 week before the experiment. C57BL/6 mice were subcutaneously (s.c.) injected on the right flank with 1 × 10^6 syngeneic MC38 cells in 200 μL PBS. One week later, tumor-bearing mice were randomized into groups of negative control (normal saline with 3% DMSO and 0.5% Tween-80), 0.5, 1.5, 5 and 15 mg/kg of compounds or anti-TIGIT and isotype control groups. Mice were treated with 200 μL control or indicated compound through intraperitoneal (i.p.) injection every other day for 2 weeks, or with 200 μg anti-TIGIT (clone:1G9, Bioxcell) or isotype control mouse IgG (I5381, Sigma) through i.p. injection every 3 days for 2 weeks. Tumor sizes were measured using a digital caliper, and tumor volumes were calculated as the formula: V=1/2×alength×bwidth×cheight
For indicated immune cell depletion models, MC38 mice were injected with 250 μg anti-CD4 (clone: GK1.5), 200 μg anti-CD8 (clone: YTS169.4) or matched rat IgG control (I4131, Sigma), 200 μg anti-NK1.1 (clone: PK136) or matched mouse IgG control (I5381, Sigma) the day before the start of tumor inoculation, as well as weekly thereafter, resulting in a total of 3 injections per mouse. The depletion efficacy was confirmed by flow cytometry analysis with the blood sample of mice treated with indicated antibodies for 6 days. Mouse anti-CD45 FITC (clone: 30-F11, eBioscience), anti CD3 PerCP-eFluor710 (clone: 17A2, eBioscience), anti-CD8α APC (clone: 53–6.7, eBioscience), anti-CD4 APC (clone: GK1.5, eBioscience) and anti-NK1.1 PE (clone: PK136, eBioscience) were used.
Upon completion of treatment, MC38 tumor-bearing mice were sacrificed, and the tumors were dissected and digested by 100 U/mL collagenase IV (Invitrogen) and 100 U/mL Dnase I (Sigma) for 60 min, and then filtered through a 70 μm nylon cell strainer to single cell suspension. The cells were incubated with mouse anti-CD45 FITC (clone: 30-F11, eBioscience), mouse anti-CD3 PerCP-eFluor710 (clone: 17A2, eBioscience), and mouse anti-CD8α APC (clone: 53–6.7, eBioscience) to detect the frequency of infiltrating CD8^+ T cells. For functional assay, the tumor-infiltrating lymphocytes were isolated from tumor cell suspension by discontinuous Percoll density gradients (40 and 70%) (GE Healthcare). The isolated tumor-infiltrating lymphocytes, splenocytes and draining lymph node cells prepared by gentle mechanical disruption were stimulated with or without 20 ng/mL phorbol 12-myristate 13-acetate (PMA, Sigma) and 1 μMionomycin (Sigma) in the presence of protein transport inhibitor for 4 h. The following procedure of intracellular cytokine staining assay was performed as mentioned above, and the antibodies for the staining were mouse anti-CD3 PerCP-eFluor710, mouse anti-CD8α PE, and mouse anti-IFN-γ APC (clone: XMG1.2, eBioscience).

[1] = Potential side effects in mice; type: in vivo; conditions: different concentrations administrated for at least one week

Compound: O=C1/C(=C2\Nc3ccccc3C2=O)Nc2ccccc21 [SMC 2, Indigo]
- KD to PVR protein (BLI) (PVR; series of concentrations): could not fit a determined KD value
- BLI response, primary screening (PVR; single concentration of 100 μM): relatively good response

Compound: COc1cc(/C=C/C(=O)CC(=O)/C=C/c2ccc(O)c(OC)c2)ccc1O [SMC 6, Curcumin]
- Kd (PVR; series of concentrations): 42 µM
- blocking efficacy of TIGIT/PVR (human TIGIT/PVR): 52%

Compound: N[C@@H](Cc1cc(I)c(Oc2ccc(O)c(I)c2)c(I)c1)C(=O)O [SMC 14, Liothyronine]
- cell viability of MC38 cells (MTT) (MC38 cells): did not impact the cell viability
- anti-tumor effects, MC38 tumor model (MC38 tumor; 0.5 mg/kg i.p. every other day): almost no anti-tumor effects
- anti-tumor effects with CD4+, CD8+ T and NK cells depleted (MC38 tumor; 5 mg/kg, MC38 model, depletion antibodies): almost disappeared
- anti-tumor effects, MC38 tumor model (MC38 tumor; 15 mg/kg compared with 5 mg/kg, i.p. every other day): equivalent
- MC38 tumor growth (MC38 tumor; high dose 5 mg/kg i.p. every other day): significantly inhibit
- MC38 tumor growth (MC38 tumor; low dose 1.5 mg/kg i.p. every other day): significantly inhibit
- side effects on mental state, weight and diet of the mice [1]: no obvious effects

Compound: O=C(O[C@@H]1Cc2c(O)cc(O)cc2O[C@@H]1c1ccc(O)c(O)c1)c1cc(O)c(O)c(O)c1 [SMC 22, Epicatechin gallate]
- Kd (PVR; series of concentrations): 5.9 µM
- blocking efficacy of TIGIT/PVR (human TIGIT/PVR): extremely low blocking efficacy
